Test results: PubChem BioAssay AID2060603 (Molecular Pharmacology Branch, DTP, NCI, 2025)
Values joined by “and” are separate entries in the source; they are usually repeats but may differ in a detail not shown here. Equal values may be shown once. Blank lines part the entries; values can stand above or below the molecule they belong to.

System: 422866-222-R5-J1-PDC spheroid viability
Assay: Anticancer human tumor 422866-222-R5-J1-PDC patient-derived pancreatic adenocarcinoma cell line growth inhibition [CLK]
Conditions: spheroids with HUVEC and MSC; for viability, T/C: stronger effect = lower value
Excerpt: A high-throughput screen of multi-cell type tumor spheroids was designed to identify active combinations of […] and targeted small molecules. Complex spheroids include a stromal component modeled by human endothelial cells (HUVEC) and fibroblasts modeled by human mesenchymal stem cells (MSCs). The concentration ranges selected for each drug and investigational agent were based upon clinically achievable concentrations if the clinical Cmax of the agent was known.
Compounds. The drugs and investigational agents: cirtuvivint (SM08502; NSC835563), CC-671 (NSC850746), vemurafenib (NSC761431), tapotoclax (NSC804041), sotorasib (NSC818433), adagrasib (NSC831453), MRTX-1133 (NSC836407), BAY2416964 (NSC825713), copanlisib (NSC816437), inavolisib (NSC800729), abemaciclib (NSC768073), osimertinib (NSC779217), entinostat (NSC756642), eltanexor (KPT-8602, NSC794443), venetoclax (NSC766270), ceralasertib (NSC777638), bortezomib (NSC756655), olaparib (NSC753686), talazoparib (NSC767125), alisertib (NSC759677), peposertib (NSC802822), gemcitabine (NSC613327), 5-fluorouracil (NSC19893), SN-38 (NSC673596), oxaliplatin (NSC266046), paclitaxel (NSC125973), and doxorubicin (NSC123127), were obtained from the National Cancer Institute (NCI) Developmental Therapeutics Program Chemical Repository. The FDA-approved anticancer drug set is available from the Developmental Therapeutics Program at https://dtp.cancer.gov/organization/dscb/obtaining/available plates.htm. […] The stock solutions were prepared in dimethyl sulfoxide (DMSO, Sigma-Aldrich, St. Louis, MO, cat. D2650), except for the platinum complexes which were prepared in saline (Quality Biological, Gaithersburg, MD, cat. 114-055-101), at 800-fold the tested concentration and stored at -70 degrees C prior to their use. All drugs and investigational agents were tested over a range starting from a high concentration at or near the clinical Cmax and decreasing in half-log increments. If the clinical Cmax for an agent had not been determined, the highest concentration tested was 10 microM.
Cell Culture. All cells were maintained in an incubator at 37 degrees C and 5% CO2 with 95% humidity. The PDC lines were cultured according to standard operating procedures established by the NCI PDMR. Briefly, all PDCs were thawed and cultured in Matrigel-coated flasks prepared with a working solution of 1X Ham's F-12 nutrient mix, without supplementation (Invitrogen, Waltham, MA, cat. 11765054), 100 U/mL penicillin-streptomycin (Invitrogen, cat. 15140122), and 2.5% Matrigel (Corning Inc., Corning, NY, cat. 354248) for the first three passages. The 947758-054-R-J2-PDC line was cultured in 6B/Colon 1A media, which includes advanced DMEM/F-12 (Thermo Fisher Scientific, cat. 12634028), 10 mM HEPES (Thermo Fisher Scientific, cat. 15630080), 1X GlutaMAX supplement (Thermo Fisher Scientific, cat. 35050061), 0.1 mg/mL primocin (InvivoGen, cat. ant-pm-2), 10% defined fetal bovine serum, heat inactivated (HyClone Laboratories Inc., cat. SH30070.03HI), 1.25 mM N-Acetyl-L-cysteine (Sigma-Aldrich, cat. A9165), 10 mM nicotinamide (Sigma-Aldrich, cat. N0636), 1X B-27 supplement (Thermo Fisher Scientific, cat. 17504044), 1X N-2 supplement (Thermo Fisher Scientific, cat. 17502048), and 10 microM Y-27632 dihydrochloride (Tocris Bioscience, cat. 1254). The 876862-298-R-J1-PDC was cultured in 6E media, which includes all 6B/Colon 1A media components plus 50% L-WRN conditioned media (ATCC, cat. CRL-3276), 50 ng/mL recombinant human EGF recombinant protein (hEGF; Thermo Fisher Scientific, cat. PHG0311), 10 ng/mL recombinant human fibroblast growth factor 10 (hGFG-10; PeproTech, cat. 100-26), 1 ng/mL recombinant human fibroblast growth factor 2 (hFGF-2; PeproTech, cat. 100-18B), and 1 µM prostaglandin E2 (PGE2; Tocris, cat. 2296). The 227483-062-R1-J1-PDC line was cultured in Panc media, containing all 6E components except hFGF-2, with the addition of 500 nM SB-431542 (Selleckchem, cat. S1067) and 10 nM gastrin (Tocris, cat. 3006). […]

[1] = curve of first compound, second compound 0.0316 µM
[2] = curve of first compound, second compound 0.1 µM
[3] = curve of first compound, second compound 0.316 µM
[4] = curve of first compound, second compound 1 µM
[5] = curve of first compound, second compound 3.16 µM
[6] = curve of first compound, second compound 10 µM
[7] = second compound 0.0316 µM, first compound 0.0316 µM
[8] = second compound 0.0316 µM, first compound 0.1 µM
[9] = second compound 0.0316 µM, first compound 0.316 µM
[10] = second compound 0.0316 µM, first compound 1 µM
[11] = second compound 0.0316 µM, first compound 3.16 µM
[12] = second compound 0.0316 µM, first compound 10 µM
[13] = second compound 0.1 µM, first compound 0.0316 µM
[14] = second compound 0.1 µM, first compound 0.1 µM
[15] = second compound 0.1 µM, first compound 0.316 µM
[16] = second compound 0.1 µM, first compound 1 µM
[17] = second compound 0.1 µM, first compound 3.16 µM
[18] = second compound 0.1 µM, first compound 10 µM
[19] = second compound 0.316 µM, first compound 0.0316 µM
[20] = second compound 0.316 µM, first compound 0.1 µM
[21] = second compound 0.316 µM, first compound 0.316 µM
[22] = second compound 0.316 µM, first compound 1 µM
[23] = second compound 0.316 µM, first compound 3.16 µM
[24] = second compound 0.316 µM, first compound 10 µM
[25] = second compound 1 µM, first compound 0.0316 µM
[26] = second compound 1 µM, first compound 0.1 µM
[27] = second compound 1 µM, first compound 0.316 µM
[28] = second compound 1 µM, first compound 1 µM
[29] = second compound 1 µM, first compound 3.16 µM
[30] = second compound 1 µM, first compound 10 µM
[31] = second compound 3.16 µM, first compound 0.0316 µM
[32] = second compound 3.16 µM, first compound 0.1 µM
[33] = second compound 3.16 µM, first compound 0.316 µM
[34] = second compound 3.16 µM, first compound 1 µM
[35] = second compound 3.16 µM, first compound 3.16 µM
[36] = second compound 3.16 µM, first compound 10 µM
[37] = second compound 10 µM, first compound 0.0316 µM
[38] = second compound 10 µM, first compound 0.1 µM
[39] = second compound 10 µM, first compound 0.316 µM
[40] = second compound 10 µM, first compound 1 µM
[41] = second compound 10 µM, first compound 3.16 µM
[42] = second compound 10 µM, first compound 10 µM
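Also: spheroids exposed to agents for seven days before readout.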

IC50 [1]: > 10 µM
IC50 [2]: > 10 µM
IC50 [3]: > 10 µM
IC50 [4]: > 10 µM
IC50 [5]: > 10 µM
IC50 [6]: > 10 µM
SMILES: CCCS(=O)(=O)Nc1ccc(F)c(C(=O)c2c[nH]c3ncc(-c4ccc(Cl)cc4)cc23)c1F + CNC(=O)c1ccc(Nc2nc(OC3CCCC3)c3c(-c4ccc5nc(C)oc5c4)c[nH]c3n2)c(OC)c1
viability, T/C [7]: 93.6%
viability, T/C [8]: 111%
viability, T/C [9]: 141%
viability, T/C [10]: 155%
viability, T/C [11]: 190%
viability, T/C [12]: 134%
viability, T/C [13]: 99.8%
viability, T/C [14]: 102%
viability, T/C [15]: 114%
viability, T/C [16]: 152%
viability, T/C [17]: 224%
viability, T/C [18]: 122%
viability, T/C [19]: 81.5%
viability, T/C [20]: 77.2%
viability, T/C [21]: 79.3%
viability, T/C [22]: 105%
viability, T/C [23]: 101%
viability, T/C [24]: 104%
viability, T/C [25]: 69%
viability, T/C [26]: 75.9%
viability, T/C [27]: 81.1%
viability, T/C [28]: 91%
viability, T/C [29]: 114%
viability, T/C [30]: 92.3%
viability, T/C [31]: 58.4%
viability, T/C [32]: 70.1%
viability, T/C [33]: 67.1%
viability, T/C [34]: 84.6%
viability, T/C [35]: 128%
viability, T/C [36]: 84%
viability, T/C [37]: 57.8%
viability, T/C [38]: 69.2%
viability, T/C [39]: 74.8%
viability, T/C [40]: 75.9%
viability, T/C [41]: 117%
viability, T/C [42]: 80.7%

IC50 (curve of compound): > 10 µM
SMILES: COC1C=CCC(C)C(C)S(=O)(=O)NC(=O)c2ccc3c(c2)N(CC2CCC21)CC1(CCCc2cc(Cl)ccc21)CO3 (stereo unspecified)
viability, T/C (compound 0.0316 µM): 102% and 113%
viability, T/C (compound 0.1 µM): 91.9% and 102%
viability, T/C (compound 0.316 µM): 95.6% and 101%
viability, T/C (compound 1 µM): 97.8% and 87.8%
viability, T/C (compound 3.16 µM): 87.5% and 111%
viability, T/C (compound 10 µM): 59.8% and 69.4%

IC50 [1]: > 10 µM
IC50 [2]: > 10 µM
IC50 [3]: > 10 µM
IC50 [4]: > 10 µM
IC50 [5]: > 10 µM
IC50 [6]: > 10 µM
SMILES: CC(CO)NC(=O)c1cc(-c2ccc(Cl)cc2)nn(-c2cnn(C)c2)c1=O (stereo unspecified) + CNC(=O)c1ccc(Nc2nc(OC3CCCC3)c3c(-c4ccc5nc(C)oc5c4)c[nH]c3n2)c(OC)c1
viability, T/C [7]: 91%
viability, T/C [8]: 112%
viability, T/C [9]: 112%
viability, T/C [10]: 114%
viability, T/C [11]: 77.2%
viability, T/C [12]: 81.7%
viability, T/C [13]: 113%
viability, T/C [14]: 97.3%
viability, T/C [15]: 109%
viability, T/C [16]: 98.9%
viability, T/C [17]: 74.9%
viability, T/C [18]: 78.1%
viability, T/C [19]: 73.2%
viability, T/C [20]: 73.8%
viability, T/C [21]: 72.6%
viability, T/C [22]: 73.5%
viability, T/C [23]: 72.2%
viability, T/C [24]: 66.8%
viability, T/C [25]: 74.8%
viability, T/C [26]: 64.2%
viability, T/C [27]: 66.2%
viability, T/C [28]: 55.1%
viability, T/C [29]: 57.5%
viability, T/C [30]: 61.8%
viability, T/C [31]: 56.3%
viability, T/C [32]: 60.8%
viability, T/C [33]: 57.2%
viability, T/C [34]: 61.8%
viability, T/C [35]: 51.5%
viability, T/C [36]: 50.2%
viability, T/C [37]: 55.6%
viability, T/C [38]: 63.4%
viability, T/C [39]: 67%
viability, T/C [40]: 60.4%
viability, T/C [41]: 60.9%
viability, T/C [42]: 56.4%
